Values belong to the sequence of their own block, whether it stands above or below them.
Columns and labels:
[1] = test system: IgG in plasma of HLA-A2^+ healthy donors and prostate cancer patients; experiment: Peptide-specific IgG in plasma by ELISA (HLA-A2-binding PTHrP peptides); design: species or system human; conditions: for IgG reactive to the peptide in plasma (difference of OD): 1:100-diluted plasma; for Total (IgG-positive donors / donors tested): HLA-A2^+ healthy donors; for Total (IgG-positive patients / patients tested): HLA-A2^+ prostate cancer patients
Description: Peptide-specific IgG levels in the plasma were measured by ELISA, as previously reported. In brief, peptide (20 μg/well)-immobilized plates were blocked with Block Ace (Yukijirushi, Tokyo, Japan) and washed with 0.05% Tween20-PBS, after which 100 μl/well of plasma sample diluted with 0.05% Tween20-Block Ace was added to the plate. After 2 hours incubation at 37° C., the plates were washed and further incubated for 2 hours with a 1:1000-diluted rabbit anti-human IgG (γ-chain-specific) (DAKO, Glostrup, Denmark). The plates were washed, and then 100 μl of 1:100-diluted goat anti-rabbit IgG-conjugated horseradish peroxidase (EnVision, DAKO) was added to each well, and the plates were then incubated at room temperature for 40 min. After the plates were washed once, 100 μl/well of tetramethyl benzidine substrate solution (KPL, Guildford, UK) was added, and the reaction was stopped by the addition of 1 M phosphoric acid. The values are shown as optical density (OD) units/ml, and responses to the HIV peptide were subtracted. IgG reactive to a corresponding PTHrP peptide was judged to be positive when the difference of the OD in 1:100-diluted plasma exceeded 0.05. The results that IgG reactive to either the PTHrP102-111 or the […] peptide was detected in 8 of 10 healthy donors and in 7 of 10 prostate cancers are shown in Table 2 hereinafter.
In a similar way to Example 3, it was examined whether IgGs reactive to peptides of PTHrP 42-51 and PTHrP 59-67 could be detected in the plasma of 10 healthy donors and 10 cancer patients. The cut-off value at 1:100-diluted plasma was ODO.054.

[2] = test system: PBMCs of HLA-A2^+ healthy donors and prostate cancer patients; experiment: Assay for peptide-specific CTLs in PBMCs (IFN-γ ELISA, peptide-pulsed T2 cells); type: cell-based, human; conditions: for INF-γ production: T2 cells; for Total (donors with significant peptide-specific IFN-γ production / donors tested) / Total (patients with significant peptide-specific IFN-γ production / patients tested): p < 0.05
[3] = HLA-A2^+ prostate cancer patient #1
[4] = HLA-A2^+ prostate cancer patient #2
[5] = HLA-A2^+ prostate cancer patient #3
[6] = HLA-A2^+ prostate cancer patient #4
[7] = HLA-A2^+ prostate cancer patient #5
[8] = HLA-A2^+ prostate cancer patient #6
[9] = HLA-A2^+ prostate cancer patient #7
[10] = HLA-A2^+ prostate cancer patient #8
[11] = HLA-A2^+ prostate cancer patient #9
[12] = HLA-A2^+ prostate cancer patient #10
[13] = HLA-A2^+ healthy donor #1 (A0201)
[14] = HLA-A2^+ healthy donor #2 (A0201)
[15] = HLA-A2^+ healthy donor #3 (A0201)
[16] = HLA-A2^+ healthy donor #4 (A0201)
[17] = HLA-A2^+ healthy donor #5 (A0206)
[18] = HLA-A2^+ healthy donor #6 (A0206)
[19] = HLA-A2^+ healthy donor #7 (A0206)
[20] = HLA-A2^+ healthy donor #8 (A0206)
[21] = HLA-A2^+ healthy donor #9 (A0206)
[22] = HLA-A2^+ healthy donor #10 (A0207)
[23] = HLA-A2^+ prostate cancer patient #1 (A0206)
[24] = HLA-A2^+ prostate cancer patient #2 (A0210)
[25] = HLA-A2^+ prostate cancer patient #3 (A0210)
[26] = HLA-A2^+ prostate cancer patient #4 (A0206)
[27] = HLA-A2^+ prostate cancer patient #5 (A0206)
[28] = HLA-A2^+ prostate cancer patient #6 (A0207)
[29] = HLA-A2^+ prostate cancer patient #7 (A0206)
[30] = HLA-A2^+ prostate cancer patient #8 (A0206)
[31] = HLA-A2^+ prostate cancer patient #9 (A0201)
[32] = HLA-A2^+ prostate cancer patient #10 (A0201)
[33] = HLA-A2^+ prostate cancer patients

IgG reactive to the peptide in plasma (difference of OD) ([1]; HLA-A2^+ healthy donor #6): 0.0865 OD | IgG reactive to the peptide in plasma (difference of OD) ([1]; HLA-A2^+ healthy donor #7): 0.089 OD | IgG reactive to the peptide in plasma (difference of OD) ([1]; HLA-A2^+ healthy donor #8): 0.193 OD | IgG reactive to the peptide in plasma (difference of OD) ([1]; HLA-A2^+ healthy donor #9): 0.0925 OD | IgG reactive to the peptide in plasma (difference of OD) ([1]; HLA-A2^+ healthy donor #10): 0.099 OD | Total (IgG-positive donors / donors tested) [1]: 5/10 | IgG reactive to the peptide in plasma (difference of OD) [1, 5]: 0.078 OD | IgG reactive to the peptide in plasma (difference of OD) [1, 12]: 0.1515 OD | Total (IgG-positive patients / patients tested) [1]: 2/10
Sequence: TSTTSLELD [PTHrP 165-173, previously reported PTHrP peptide generating CTLs from HLA-A*0201 healthy donors [17], reference compound]
IgG reactive to the peptide in plasma (difference of OD) ([1]; HLA-A2^+ healthy donor #1): — (IgG reactive to a corresponding peptide was judged to be positive when a difference of OD in a 1:100-diluted plasma was more than 0.054.) | IgG reactive to the peptide in plasma (difference of OD) ([1]; HLA-A2^+ healthy donor #2): — (IgG reactive to a corresponding peptide was judged to be positive when a difference of OD in a 1:100-diluted plasma was more than 0.054.) | IgG reactive to the peptide in plasma (difference of OD) ([1]; HLA-A2^+ healthy donor #3): — (IgG reactive to a corresponding peptide was judged to be positive when a difference of OD in a 1:100-diluted plasma was more than 0.054.) | IgG reactive to the peptide in plasma (difference of OD) ([1]; HLA-A2^+ healthy donor #4): — (IgG reactive to a corresponding peptide was judged to be positive when a difference of OD in a 1:100-diluted plasma was more than 0.054.) | IgG reactive to the peptide in plasma (difference of OD) ([1]; HLA-A2^+ healthy donor #5): — (IgG reactive to a corresponding peptide was judged to be positive when a difference of OD in a 1:100-diluted plasma was more than 0.054.) | IgG reactive to the peptide in plasma (difference of OD) [1, 3]: — (IgG reactive to a corresponding peptide was judged to be positive when a difference of OD in a 1:100-diluted plasma was more than 0.054.) | IgG reactive to the peptide in plasma (difference of OD) [1, 4]: — (IgG reactive to a corresponding peptide was judged to be positive when a difference of OD in a 1:100-diluted plasma was more than 0.054.) | IgG reactive to the peptide in plasma (difference of OD) [1, 6]: — (IgG reactive to a corresponding peptide was judged to be positive when a difference of OD in a 1:100-diluted plasma was more than 0.054.) | IgG reactive to the peptide in plasma (difference of OD) [1, 7]: — (IgG reactive to a corresponding peptide was judged to be positive when a difference of OD in a 1:100-diluted plasma was more than 0.054.) | IgG reactive to the peptide in plasma (difference of OD) [1, 8]: — (IgG reactive to a corresponding peptide was judged to be positive when a difference of OD in a 1:100-diluted plasma was more than 0.054.) | IgG reactive to the peptide in plasma (difference of OD) [1, 9]: — (IgG reactive to a corresponding peptide was judged to be positive when a difference of OD in a 1:100-diluted plasma was more than 0.054.) | IgG reactive to the peptide in plasma (difference of OD) [1, 10]: — (IgG reactive to a corresponding peptide was judged to be positive when a difference of OD in a 1:100-diluted plasma was more than 0.054.) | IgG reactive to the peptide in plasma (difference of OD) [1, 11]: — (IgG reactive to a corresponding peptide was judged to be positive when a difference of OD in a 1:100-diluted plasma was more than 0.054.) | INF-γ production [2, 13]: 0 pg/mL | INF-γ production [2, 14]: 222 pg/mL | INF-γ production [2, 15]: 0 pg/mL | INF-γ production [2, 16]: 294 pg/mL | INF-γ production [2, 17]: 0 pg/mL | INF-γ production [2, 18]: 0 pg/mL | INF-γ production [2, 19]: 27 pg/mL | INF-γ production [2, 20]: 325 pg/mL | INF-γ production [2, 21]: 395 pg/mL | INF-γ production [2, 22]: 46 pg/mL | induced peptide-specific CTLs, number of donors ([2]; HLA-A2^+ healthy donors): 4 of 10 | Total (donors with significant peptide-specific IFN-γ production / donors tested) ([2]; HLA-A2^+ healthy donors): 4/10 | INF-γ production [2, 23]: 202 pg/mL | INF-γ production [2, 24]: 26 pg/mL | INF-γ production [2, 25]: 60 pg/mL | INF-γ production [2, 26]: 151 pg/mL | INF-γ production [2, 27]: 103 pg/mL | INF-γ production [2, 28]: 0 pg/mL | INF-γ production [2, 29]: 0 pg/mL | INF-γ production [2, 30]: 80 pg/mL | INF-γ production [2, 31]: 0 pg/mL | INF-γ production [2, 32]: 24 pg/mL | induced peptide-specific CTLs (peptide-specific IFN-γ production), number of patients [2, 33]: 3 of 10 | Total (patients with significant peptide-specific IFN-γ production / patients tested) [2, 33]: 3/10

IgG reactive to the peptide in plasma (difference of OD) ([1]; HLA-A2^+ healthy donor #1): 0.0745 OD | IgG reactive to the peptide in plasma (difference of OD) ([1]; HLA-A2^+ healthy donor #2): 0.092 OD | IgG reactive to the peptide in plasma (difference of OD) ([1]; HLA-A2^+ healthy donor #4): 0.128 OD | IgG reactive to the peptide in plasma (difference of OD) ([1]; HLA-A2^+ healthy donor #5): 0.0575 OD | IgG reactive to the peptide in plasma (difference of OD) ([1]; HLA-A2^+ healthy donor #8): 0.0585 OD | Total (IgG-positive donors / donors tested) [1]: 5/10 | IgG reactive to the peptide in plasma (difference of OD) [1, 9]: 0.0655 OD | IgG reactive to the peptide in plasma (difference of OD) [1, 12]: 0.112 OD | Total (IgG-positive patients / patients tested) [1]: 2/10
Sequence: YLTQETNKV [PTHrP 103-111]
IgG reactive to the peptide in plasma (difference of OD) ([1]; HLA-A2^+ healthy donor #3): — (IgG reactive to a corresponding peptide was judged to be positive when a difference of OD in a 1:100-diluted plasma was more than 0.054.) | IgG reactive to the peptide in plasma (difference of OD) ([1]; HLA-A2^+ healthy donor #6): — (IgG reactive to a corresponding peptide was judged to be positive when a difference of OD in a 1:100-diluted plasma was more than 0.054.) | IgG reactive to the peptide in plasma (difference of OD) ([1]; HLA-A2^+ healthy donor #7): — (IgG reactive to a corresponding peptide was judged to be positive when a difference of OD in a 1:100-diluted plasma was more than 0.054.) | IgG reactive to the peptide in plasma (difference of OD) ([1]; HLA-A2^+ healthy donor #9): — (IgG reactive to a corresponding peptide was judged to be positive when a difference of OD in a 1:100-diluted plasma was more than 0.054.) | IgG reactive to the peptide in plasma (difference of OD) ([1]; HLA-A2^+ healthy donor #10): — (IgG reactive to a corresponding peptide was judged to be positive when a difference of OD in a 1:100-diluted plasma was more than 0.054.) | IgG reactive to the peptide in plasma (difference of OD) [1, 3]: — (IgG reactive to a corresponding peptide was judged to be positive when a difference of OD in a 1:100-diluted plasma was more than 0.054.) | IgG reactive to the peptide in plasma (difference of OD) [1, 4]: — (IgG reactive to a corresponding peptide was judged to be positive when a difference of OD in a 1:100-diluted plasma was more than 0.054.) | IgG reactive to the peptide in plasma (difference of OD) [1, 5]: — (IgG reactive to a corresponding peptide was judged to be positive when a difference of OD in a 1:100-diluted plasma was more than 0.054.) | IgG reactive to the peptide in plasma (difference of OD) [1, 6]: — (IgG reactive to a corresponding peptide was judged to be positive when a difference of OD in a 1:100-diluted plasma was more than 0.054.) | IgG reactive to the peptide in plasma (difference of OD) [1, 7]: — (IgG reactive to a corresponding peptide was judged to be positive when a difference of OD in a 1:100-diluted plasma was more than 0.054.) | IgG reactive to the peptide in plasma (difference of OD) [1, 8]: — (IgG reactive to a corresponding peptide was judged to be positive when a difference of OD in a 1:100-diluted plasma was more than 0.054.) | IgG reactive to the peptide in plasma (difference of OD) [1, 10]: — (IgG reactive to a corresponding peptide was judged to be positive when a difference of OD in a 1:100-diluted plasma was more than 0.054.) | IgG reactive to the peptide in plasma (difference of OD) [1, 11]: — (IgG reactive to a corresponding peptide was judged to be positive when a difference of OD in a 1:100-diluted plasma was more than 0.054.) | INF-γ production [2, 13]: 34 pg/mL | INF-γ production [2, 14]: 217 pg/mL | INF-γ production [2, 15]: 9 pg/mL | INF-γ production [2, 16]: 0 pg/mL | INF-γ production [2, 17]: 0 pg/mL | INF-γ production [2, 18]: 0 pg/mL | INF-γ production [2, 19]: 0 pg/mL | INF-γ production [2, 20]: 0 pg/mL | INF-γ production [2, 21]: 0 pg/mL | INF-γ production [2, 22]: 0 pg/mL | Total (donors with significant peptide-specific IFN-γ production / donors tested) ([2]; HLA-A2^+ healthy donors): 1/10 | INF-γ production [2, 23]: 144 pg/mL | INF-γ production [2, 24]: 41 pg/mL | INF-γ production [2, 25]: 57 pg/mL | INF-γ production [2, 26]: 86 pg/mL | INF-γ production [2, 27]: 0 pg/mL | INF-γ production [2, 28]: 68 pg/mL | INF-γ production [2, 29]: 49 pg/mL | INF-γ production [2, 30]: 29 pg/mL | INF-γ production [2, 31]: 56 pg/mL | INF-γ production [2, 32]: 0 pg/mL | Total (patients with significant peptide-specific IFN-γ production / patients tested) [2, 33]: 1/10
